Test results reported in ChEMBL document CHEMBL2434832, “Structure-based identification of novel PPAR gamma ligands” (Bioorg Med Chem Lett, 2013).

Legend:
[1] = molecular target: T1, Peroxisome proliferator-activated receptor gamma (Homo sapiens) (UniProt P37231); assay: Binding affinity to human PPARgamma LBD expressed in Escherichia coli BL21 DE3 assessed as melting temperature at 33 uM after 2 hrs using SYPRO orange dye
T1 sequence (whole entry): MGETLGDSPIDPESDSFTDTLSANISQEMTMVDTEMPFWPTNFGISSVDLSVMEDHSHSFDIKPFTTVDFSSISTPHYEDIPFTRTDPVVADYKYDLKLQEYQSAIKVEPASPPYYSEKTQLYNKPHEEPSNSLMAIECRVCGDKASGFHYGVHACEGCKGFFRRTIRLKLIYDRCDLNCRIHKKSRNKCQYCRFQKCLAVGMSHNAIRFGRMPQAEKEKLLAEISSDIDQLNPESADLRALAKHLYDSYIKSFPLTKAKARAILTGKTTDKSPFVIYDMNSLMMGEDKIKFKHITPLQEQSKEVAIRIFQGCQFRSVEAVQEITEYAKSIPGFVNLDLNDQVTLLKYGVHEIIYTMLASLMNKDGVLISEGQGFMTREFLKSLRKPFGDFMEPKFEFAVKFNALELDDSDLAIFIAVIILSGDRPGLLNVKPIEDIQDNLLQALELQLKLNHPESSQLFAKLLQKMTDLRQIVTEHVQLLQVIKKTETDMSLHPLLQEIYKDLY

[2] = Solubility of the compound in DMSO; type: physicochemical
[3] = molecular target: T2, Peroxisome proliferator-activated receptor gamma (Homo sapiens, UniProt P37231); assay: Displacement of fluormone from human PPARgamma LBD expressed in Escherichia coli BL21 DE3 by fluorescence polarization assay
T2 sequence (P37231 whole entry): T1 sequence (whole entry)

Row | Structure (SMILES) | Tm [1] [°C] | solubility [2] | IC50 [3] [nM]
1 | O=C(CN1C(=O)c2ccccc2C1=O)NCc1ccc(C(=O)O)cc1 | 46 | soluble | –
2 | O=C(O)c1ccc(-n2nnnc2SCc2ccccc2Br)cc1 | 46 | soluble | 5130
3 | Cc1ccc(Cn2c(=N)n(CC(=O)O)c3ccccc32)cc1 | 46 | soluble | –
4 | O=C(O)Cn1c(SCCOc2ccc3ccccc3c2)nc2ccccc21 | 46 | soluble | 2220
5 | C[C@@H](Oc1ccc(/C=C2/C(=O)N=C(O)N(c3cccc(Br)c3)C2=O)cc1)C(=O)O | 46 | soluble | –
6 | Cc1ccc(S(=O)(=O)Cc2noc(CCC(=O)O)n2)cc1 | 46 | soluble | –
7 | CN(CCOc1ccc(CC2SC(=O)NC2=O)cc1)c1ccccn1 (configuration not stated) | 49 | – | –
8 | COc1cccc(/C=C2\SC(=S)N(CCCC(=O)N3CCC(C(=O)O)CC3)C2=O)c1 | 49 | soluble | –
9 | Cc1ccccc1Nc1nc(N)nc(CSc2nc3ccccc3c(=O)[nH]2)n1 | 46 | soluble | –
10 | O=C(O)Cn1ccc2cc(OCc3ccccc3)ccc21 | 46 | soluble | –
11 | CN1CCN(S(=O)(=O)c2ccc(SCC(=O)O)nc2)CC1 | – | Insoluble | –
12 | O=C(O)c1ccc(COc2ccccc2C=C2C(=O)c3ccccc3C2=O)cc1 | 53 | soluble | 1140
13 | CCOc1cc(/C=C2/SC(Nc3cccc(C(=O)O)c3)=NC2=O)ccc1OC | – | Insoluble | –
14 | CSc1ccccc1-n1nnnc1SCC(=O)O | 46 | soluble | –
15 | Cc1c(/C=C2\SC(Nc3cccc(C(=O)O)c3)=NC2=O)c2ccccc2n1C | 46 | soluble | –
16 | O=C(Nc1ccc(C(=O)O)cc1)/C(=C\c1ccc2c(c1)OCO2)NC(=O)c1ccc(Br)o1 | 46 | soluble | –
